One test deals with Carbonic anhydrase 1 (Homo sapiens, UniProt P00915). The experiment in a line: Binding affinity to human CA1 assessed as inhibition constant incubated for 6 hrs by phenol red dye based stopped flow CO2 hydration assay.
In test [1] the target is Estrogen receptor beta (Homo sapiens) (UniProt Q92731). The test is described as follows: Partial agonist activity at wild type human ERbeta in HEK-293T cells transfected with 3xERE-driven luciferase reporter plasmid by luciferase reporter gene assay. It counts as cell-based. In general terms: A reporter such as luciferase makes a cellular process visible.
Another test addresses Carbonic anhydrase 9 (Homo sapiens, UniProt Q16790).
The target in the next test is Carbonic anhydrase 12 (Homo sapiens, UniProt O43570). The test is described as follows: Binding affinity to human CA12 assessed as inhibition constant incubated for 6 hrs by phenol red dye based stopped flow CO2 hydration assay.
A further test deals with Carbonic anhydrase 2 (Homo sapiens, UniProt P00918). The experiment in a line: Binding affinity to human CA2 assessed as inhibition constant incubated for 6 hrs by phenol red dye based stopped flow CO2 hydration assay.

The source made the active and inactive calls. The rule behind the calls is not given here.

Chain of Estrogen receptor beta (Homo sapiens) (Q92731 whole entry): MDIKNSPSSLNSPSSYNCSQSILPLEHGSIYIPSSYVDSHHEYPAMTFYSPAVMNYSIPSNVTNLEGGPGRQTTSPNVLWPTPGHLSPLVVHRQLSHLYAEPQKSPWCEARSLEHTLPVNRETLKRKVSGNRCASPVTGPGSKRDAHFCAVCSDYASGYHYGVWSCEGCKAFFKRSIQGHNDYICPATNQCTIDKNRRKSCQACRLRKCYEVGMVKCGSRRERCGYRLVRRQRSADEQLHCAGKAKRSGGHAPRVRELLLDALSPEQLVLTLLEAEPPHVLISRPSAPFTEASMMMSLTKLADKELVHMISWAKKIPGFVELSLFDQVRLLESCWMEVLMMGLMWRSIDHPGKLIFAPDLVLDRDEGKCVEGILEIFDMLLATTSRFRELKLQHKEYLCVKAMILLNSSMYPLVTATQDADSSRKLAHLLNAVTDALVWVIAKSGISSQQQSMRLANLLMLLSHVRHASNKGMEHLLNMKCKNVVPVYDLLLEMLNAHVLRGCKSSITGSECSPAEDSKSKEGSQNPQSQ
Chain of Carbonic anhydrase 12 (O43570 whole entry): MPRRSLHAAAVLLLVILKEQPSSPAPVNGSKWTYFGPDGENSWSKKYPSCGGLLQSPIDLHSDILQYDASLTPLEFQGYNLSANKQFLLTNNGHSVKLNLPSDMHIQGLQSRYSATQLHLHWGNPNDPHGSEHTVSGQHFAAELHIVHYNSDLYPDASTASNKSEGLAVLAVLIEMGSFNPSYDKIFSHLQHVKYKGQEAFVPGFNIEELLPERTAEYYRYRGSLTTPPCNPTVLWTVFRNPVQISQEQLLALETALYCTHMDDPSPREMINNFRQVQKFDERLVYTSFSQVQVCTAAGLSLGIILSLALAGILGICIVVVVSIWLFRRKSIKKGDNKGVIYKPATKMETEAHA
Chain of Carbonic anhydrase 1 (P00915 whole entry): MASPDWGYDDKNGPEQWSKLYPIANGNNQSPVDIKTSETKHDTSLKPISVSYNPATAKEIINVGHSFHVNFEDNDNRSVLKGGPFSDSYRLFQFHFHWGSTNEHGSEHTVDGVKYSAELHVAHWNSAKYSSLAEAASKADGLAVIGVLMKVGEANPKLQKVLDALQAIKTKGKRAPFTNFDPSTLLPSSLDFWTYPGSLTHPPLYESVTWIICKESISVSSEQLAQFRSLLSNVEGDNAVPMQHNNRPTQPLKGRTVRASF
Description for Carbonic anhydrase 9: Binding affinity to human CA9 assessed as inhibition constant incubated for 6 hrs by phenol red dye based stopped flow CO2 hydration assay

In general, Ki refers to the dissociation constant of the complex between target and ligand, obtained from inhibition or displacement. Consider `NS(=O)(=O)c1ccc2c(c1)C1C=CCC1C(c1ccccc1Cl)N2` (racemic), for which the inhibition constant Ki amounted to 73.6 nM at Carbonic anhydrase 1, 2090 nM on Carbonic anhydrase 9, 256 nM at Carbonic anhydrase 12 and 2.2 nM at Carbonic anhydrase 2. Further, the outcome in test [1] was inactive.

(Values after ChEMBL document CHEMBL5352473, “Design, synthesis, biological evaluation and crystal structure determination of dual modulators of carbonic anhydrases and estrogen receptors” (Eur J Med Chem, 2023).)
